The text below walks through data of patent publication US9216974B2, “Phenoxazine derivatives and methods of use thereof” (Washington University, priority 2010, dated 2015).

One data set concerns the target CAA (Homo sapiens, UniProt P05067). As to the kind of experiment: Binding affinities for CAA performed on isolated vessels determined by fluorescent binding. Particulars: for Ki: read-out: Binding affinity Ki; for Kd: read-out: Binding affinity KD. How it is done: The isolation of cerebral vessels for biochemical analysis will be performed as described (78, 98). […] After the cerebellum is removed, the brain will be homogenized in fivefold excess of vessel buffer. An equal volume of 26% dextran will be added, and the tissue will be centrifuged at 6200×g for 30 min at 4° C. The resulting vessels form a pellet, whereas the parenchymal “vessel-free” material forms a solid, compact disc at the top of the solution. The […] will be resuspended in vessel buffer and passed over a 40-μm nylon mesh to capture vessels. Vessel and parenchymal material will be lysed in 5 M guanidine, 50 mM Tris, pH 8, with protease inhibitor cocktail (Roche) for 3 hr.

The subject of data set [1] is CAA vs. neuritic plaques. As to the kind of experiment: Co-staining of fixed brain sections of Tg2576 mice with fluorescent amyloid dyes. The format is binding. Particulars: aged (16-month-old) Tg2576 mice. An excerpt:
(§1) Tg2576 mice are a well characterized mouse model of AD and CAA. They develop congophilic Aβ aggregates within neuritic plaques and leptomeningeal and cortical penetrating arteries at 11 months of age (Hsiao et al., 1996; Kawarabayashi et al., 2001; Fryer et al., 2005; Han et al., 2008).

Data set [2] has as its target CAA (cerebrovascular Aβ deposits) (Homo sapiens, UniProt P05067). As to the kind of experiment: In situ binding assay in fixed brain tissue, CAA. Details: species or system Tg2576 mice.
Text: as §1
(§2) The Ki values for CAA vs. neuritic plaques will be calculated utilizing the fluorescent amyloid-ligand methoxy-X34 and fluorescent microscopic method. […] Tissue sections (3 sections per reaction) will be then mounted and coverslipped. Photographs of methoxy-X34 binding images will be taken using a Nikon fluorescent microscope. The fluorescent intensity on cerebral amyloid deposits and neuritic plaques will be separately quantified using Image J software. Finally, Ki values will be calculated by plotting % bound vs. log concentrations of competitors followed by non-linear regression using the Graph Pad Prism software. The maximum binding will be obtained from the methoxy-X34 intensity in the absence of competitors, while non-specific binding will be detected by the fluorescent intensity in brain tissues incubated without methoxy-X34.
In situ binding assay: Tg2576 mice or littermate controls at 15 months of age will be perfused with phosphatebuffered saline (PBS) for 5 min. Brains will be removed, fixed in 4% paraformaldehyde, and preserved in 30% glucose-PBS solution at 4° C. Brains will be coronally sectioned using a microtome and kept in cryoprotectant solution at −20° C. To label amyloid deposits, brain sections (3 sections per reaction) will be permeabilized with PBS containing 0.25% Triton X-100 for 20 min at room temperature, followed by incubation with 1 μM methoxy-X34 in the presence or absence of competitors at various concentrations (10-9-10-6 M). Sections will be subjected to fluorescent microscopy using a Nikon Eclipse C600 microscope. The fluorescent intensity of methoxy-X34 in vessels and neuritic plaques will be quantified using the ImageJ software. The binding affinity (Ki) will be calculated using the Graph Pad Prism software.

The format of data set [3] is physicochemical. How it is done:
Hydrophobicity affects drug absorption, bioavailability, hydrophobic drug-receptor interactions, metabolism of molecules, and their toxicity. […] The mixture will be incubated with agitation for 30 min until ionic and non-ionic forms of test compound reach equilibrium. Two layers will be separated by centrifugation. Test compound's concentrations in octanol and water layers will be determined by UV/VIS spectrophotometry. The log Poct value will be calculated from log (concentration in n-octanol fraction/concentration in water fraction). Experiments will be repeated at least 3 times with triplicated samples.

In data set [4] the test system is cerebrovascular Aβ deposits. As to the kind of experiment: In vivo live imaging of CAA amyloid deposits through closed cranial window. The note with it: topical application through cranial window, resorufin 2 μM, 16-month-old Tg2576 mice. How it is done:
FIG. 4 depicts in vivo live imaging of CAA amyloid deposits through closed cranial window. A,B. Closed cranial window was prepared on the right parietal bone of 16-month-old Tg2576 mice. Leptomeningeal arterioles (B) were subjected to live imaging using a fluorescent microscope. […] Scale bars: in C-E: 250 μm, in E: 100 μm.

For data set [5] the following is noted: literature value; cited from earlier work.
The conditions of data set [6]: normal rats; cited from earlier work.
The conditions of data set [7]: normal mice, cited from earlier work.
The test system of the next data set is neuritic plaques. As to the kind of experiment: In situ binding assay in fixed brain tissue, neuritic plaques. Details: species or system Tg2576 mice. Particulars: in situ binding assay at a concentration of 160 μM.
Text: as §1, §2
In situ binding assay: Tg2576 mice or littermate controls at 15 months of age will be perfused with phosphatebuffered saline (PBS) for 5 min. […] The fluorescent intensity of methoxy-X34 in vessels and neuritic plaques will be quantified using the ImageJ software. […]

In data set [8] the test system is CAA vs. neuritic plaques. In words: Staining of paraffin-embedded cortical brain sections of a human AD patient (3D6 and resorufin). Particulars: 3D6 co-labeling. The format is binding.
Text: as §1

Data set [9] relates to Aβ deposits in cerebral vessels. In words: Multi-photon microscopy of whole brains stained with resorufin and phalloidin. The note with it: 16-month-old Tg2576 mice.

“Also recorded” adds a separate entry of the source. Read-outs that look alike come from different tables or passages of the source.

The Ki is the equilibrium dissociation constant of an inhibitor or competing ligand from its target. Usually Kd stands for the constant that tells how readily two partners part at equilibrium.

Regarding `COc1ccc(OCCOc2ccc3nc4ccc(=O)cc-4oc3c2)cc1` [WC-5-45], the Ki on CAA was found to be 421 nM. For `COc1ccc(OCCOCCOc2ccc3nc4ccc(=O)cc-4oc3c2)cc1` [WC-5-47], on CAA, the Ki was > 10000 nM.

For the compound `COCCOCCOc1ccc2nc3ccc(=O)cc-3oc2c1` [WC-5-43], the inhibitory constant (Ki) at CAA worked out at 407 nM.

For the compound `CC(=O)OCCOc1ccc2nc3ccc(=O)cc-3oc2c1` [WC-5-8], at CAA, the Ki came to 860 nM.

For the compound `COc1cc(C=Cc2ccc(O)c(C(=O)O)c2)ccc1C=Cc1ccc(O)c(C(=O)O)c1` [methoxy-X34, reference compound], the “staining of CAA vs. neuritic plaques” value in the data set with CAA vs. neuritic plaques [1] is “labeled amyloid deposited in both CAA and neuritic plaques; also recorded: visualized both CAA and neuritic plaques”. Also, the “affinity for CAA vs. neuritic plaques” value in [2] (in situ binding assay) was “almost an equal affinity for both CAA and neuritic plaques”. methoxyphenyl-resorufin: the “selective binding affinity for CAA deposits” value (“selective binding affinity” for short) in data set [2] is recorded as “low nanomolar range”. In addition, in [3], the lipophilicity entry is “moderate lipophilicity”. In the case of `COc1ccc2nc3ccc(=O)cc-3oc2c1` [Methoxy-resorufin], the Ki on CAA was 4680 nM. As for `O=c1ccc2nc3ccc(OCCF)cc3oc-2c1` [WC-5-2], on CAA, the Kd is 800 nM. As for `COc1cc(/C=C/c2ccc(O)cc2)ccc1/C=C/c1ccc(O)cc1` [methoxy-X04, reference compound], the “fluorescent labeling of amyloid deposits in live mice” value in [4] is “staining was noted in both arterioles and senile plaques; also recorded: present in both cerebral arteries and parenchymal neuritic plaques”. In data set [5], the “log Poct” value is reported as 2.6. Moreover, the “brain clearance estimated half life (t½)” value in data set [6] was ~45 min. Consider `O=c1ccc2nc3ccc(OCc4cn(CCF)nn4)cc3oc-2c1` [WC-5-3], for which, at CAA, the Kd was determined as 2380 nM. Consider `O=c1ccc2nc3ccc(OCCBr)cc3oc-2c1` [WC-5-9], for which the Kd at CAA is 927 nM. As to `COCCOc1ccc2nc3ccc(=O)cc-3oc2c1` [WC-5-42], at CAA, the Ki stood at 347 nM. Regarding `CCOc1ccc2nc3ccc(=O)cc-3oc2c1` [Ethoxy-resorufin, 7-ethoxyresorufin], in data set [2], the “selective binding affinity” value is listed as “low nanomolar range”. For the same compound, in data set [2] (preliminary studies, read-out: binding affinity (Ki) for cerebrovascular Aβ deposits), the Ki is 247 nM. The lipophilicity entry in data set [3] is recorded as “moderate lipophilicity”. As for `[11CH3]Nc1ccc(-c2nc3ccc(O)cc3s2)cc1` [[^11C]PIB], the brain level is recorded as 3.2 % ID/g in [7] (2 min after injection) and 0.21 % ID/g in data set [7] (60 min). Also, in data set [7] (within 60 min), the “fraction in the brain cleared” value is 93%. Turning to `COc1ccc(COc2ccc3nc4ccc(=O)cc-4oc3c2)cc1` [WC-5-5], the Ki on CAA came out at 218 nM.

On to `O=c1ccc2nc3ccc(OCc4ccc(I)cc4)cc3oc-2c1` [WC-5-31], for which the Kd on CAA was > 10000 nM. Consider `C#COc1ccc2nc3ccc(=O)cc-3oc2c1` [WC-5-1], for which, at CAA, the Kd came to 828 nM and the Ki worked out at 4610 nM. For the compound `COc1cccc(COc2ccc3nc4ccc(=O)cc-4oc3c2)c1` [WC-5-4], the Kd on CAA worked out at 537 nM. Consider `O=c1ccc2nc3ccc(O)cc3oc-2c1` [Resorufin, resorufin], for which the entries for the “staining of CAA vs. neuritic plaques” value in the data set with CAA vs. neuritic plaques [1] and with CAA vs. neuritic plaques [1] (listed as resorufin) were “CAA>>>neuritic plaques” and “selectively bound fibrillar amyloid-laden arterioles”, respectively. Moreover, the “binding to neuritic plaques” value in the data set on neuritic plaques is “negligible”. Further, the “log Poct” value in data set [3] (30 min) turned out to be 0.427. Also, the “staining of arterioles vs. neuritic plaques in human AD brain” value in the data set with CAA vs. neuritic plaques [8] is reported as “selectively labeled 3D6-immunoreactive amyloid deposits in arterioles but less likely neuritic plaques; also recorded: prominent in 3D6-positive cerebral arterioles but was rarely seen in 3D6-positive neuritic plaques”. The “fluorescent labeling of amyloid deposits in live mice” value in data set [4] is given as “selectively labeled amyloid deposits in arterioles”; in data set [4] (listed as resorufin) it was “marked fluorescent labeling within the walls of leptomeningeal arteries (but not in neuritic plaques); also recorded: visualized cerebrovascular Aβ deposits”. Moreover, in [9], the “intensity of resorufin staining by vessel type” value is reported as “greater in pial arterioles than in penetrating arterioles or capillaries”. For the compound phenyl-resorufin, the “selective binding affinity” value in data set [2] is “low nanomolar range”. For the same compound, in data set [3], the lipophilicity entry is recorded as “moderate lipophilicity”.
